Laboratory results published in patent US20200341000A1, “METHOD OF SCREENING COMPOUNDS FOR TREATING CNS DISORDERS” (SAGE THERAPEUTICS, INC., priority 2017, published 2020).
Entries after “also recorded” stand apart in the source; their conditions may differ. Marks after values point to notes of the source that are not given here.

Assays:
[1] = test system: sIPSCs in dentate gyms granule cells (DGGCs); assay: Acute (allosteric) modulation of sIPSCs in DGGCs of hippocampal slices; assay type: cell-based, mice
Protocol: (§1) Brain slices were prepared from 3- to 5-week-old male C57 mice. Mice were anesthetized with isoflurane, decapitated, and brains were rapidly removed and submerged in ice-cold cutting solution containing (mM): 126 NaCl, 2.5 KCl, 0.5 CaCl2, 2 MgCl2, 26 NaHCO3, 1.25 NaH2PO4, 10 glucose, 1.5 sodium pyruvate, and 3 kynurenic acid. Coronal 310 μm thick slices were cut with the vibratome VT1000S (Leica Microsystems, St Louis, Mo., USA). The slices were then transferred into incubation chamber filled with prewarmed (31-32° C.) oxygenated artificial cerebro-spinal fluid (ACSF) of the following composition (in mM): 126 NaCl, 2.5 KCl, 2 CaCl2, 2 MgCl2, 26 NaHCO3, 1.25 NaH2PO4, 10 glucose, 1.5 sodium pyruvate, 1 glutamine, 3 kynurenic acid and 0.005 GABA bubbled with 95% O2-5% CO2. Slices were allowed to recover at 32° C. for at least 1 hr before recording. Exogenous GABA was added in an attempt to standardize ambient GABA in the slice and provide an agonist source for newly inserted extrasynaptic GABAARs.
(§2) After recovery, a single slice was transferred to a submerged, dual perfusion recording chamber (Warner Instruments, Hamden, Conn., USA) on the stage of an upright microscope (Nikon FN-1) with a 40× water immersion objective equipped with DIC/IR optics. Slices were maintained at 32° C. and gravity-superfused with ACSF solution throughout experimentation and perfused at rate of 2 ml/min with oxygenated (O2/CO2 95/5%) ACSF.
(§3) Whole-cell currents were recorded from the dentate gyms granule cells (DGGCs) in 310-μm-thick coronal hippocampal slices. Patch pipettes (5-7MΩ) were pulled from borosilicate glass (World Precision Instruments) and filled with intracellular solution of the composition (in mM) as follows: 140 CsCl, 1 MgCl2, 0.1 EGTA, 10 HEPES, 2 Mg-ATP, 4 NaCl and 0.3 Na-GTP (pH=7.2 with CsOH). A 5 min period for stabilization after obtaining the whole-cell recording conformation (holding potential of −60 mV) was allowed before currents were recorded using an Axopatch 200B amplifier (Molecular Devices), low-pass filtered at 2 kHz, digitized at 20 kHz (Digidata 1440A; Molecular Devices), and stored for offline analysis.
(§4) For tonic current measurements, an all-points histogram was plotted for a 10 s period before and during 100 μM picrotoxin application, once the response reached a plateau level. Recordings with unstable baselines were discarded. Fitting the histogram with a Gaussian distribution gave the mean baseline current amplitude and the difference between the amplitudes before and during picrotoxin was considered to be the tonic current. The negative section of the all-points histogram which corresponds to the inward IPSCs was not fitted with a Gaussian distribution (Kretschmannova et al., 2013; Nusser and Mody, 2002). Series resistance and whole-cell capacitance were continually monitored and compensated throughout the course of the experiment. Recordings were eliminated from data analysis if series resistance increased by >20%. Spontaneous inhibitory post-synaptic currents (sIPSCs) were analyzed using the mini-analysis software (version 5.6.4; Synaptosoft, Decatur, Ga.). Minimum threshold detection was set to 3 times the value of baseline noise signal. To assess sIPSC kinetics, the recording trace was visually inspected and only events with a stable baseline, sharp rising phase, and single peak were used to negate artifacts due to event summation. Only recordings with a minimum of 200 events fitting these criteria were analyzed. sIPSCs amplitude, and frequency from each experimental condition was pooled and expressed as mean±SEM. To measure sIPSC decay, 100 consecutive events were averaged and the decay was fitted to a double exponential and the weighted decay constant (tw) was determined. Statistical analysis was performed by using Student t-test (paired and unpaired where appropriate), where p<0.05 is considered significant.

[2] = test system: tonic current in dentate gyms granule cells (DGGCs); assay: Acute (allosteric) modulation of tonic current in DGGCs of hippocampal slices; assay type: cell-based, mice; details: 100 nM, 10 min acute exposure, then 100 μM picrotoxin; mean±SEM
Protocol: as §1, with “GABAARs. […]” for “GABAARs.”
Whole-cell currents were recorded from the dentate gyms granule cells (DGGCs) in 310-μm-thick coronal hippocampal slices. […] A 5 min period for stabilization after obtaining the whole-cell recording conformation (holding potential of −60 mV) was allowed before currents were recorded using an Axopatch 200B amplifier (Molecular Devices), low-pass filtered at 2 kHz, digitized at 20 kHz (Digidata 1440A; Molecular Devices), and stored for offline analysis.
For tonic current measurements, an all-points histogram was plotted for a 10 s period before and during 100 μM picrotoxin application, once the response reached a plateau level. […] Series resistance and whole-cell capacitance were continually monitored and compensated throughout the course of the experiment. […] Spontaneous inhibitory post-synaptic currents (sIPSCs) were analyzed using the mini-analysis software (version 5.6.4; Synaptosoft, Decatur, Ga.). […] Only recordings with a minimum of 200 events fitting these criteria were analyzed. sIPSCs amplitude, and frequency from each experimental condition was pooled and expressed as mean±SEM. […]

α1β2γ2 GABAA receptors = target: T1, α1β2γ2 GABAA receptors (Homo sapiens, UniProt P14867+P18507+P47870); assay: Whole-cell patch clamp, potentiation of GABA EC20 currents at recombinant synaptic-type receptors (LTK cells); assay type: cell-based; details: n = 3; for EC50: α1β2γ2, GABA EC20 (2 μM)
T1 construct: expressed in transfected cells
Protocol: (§5) Cellular electrophysiology was used to measure the pharmacological properties of ALLO, ganaxolone and SGE-516 in heterologous cell systems. Compounds were tested for their ability to affect GABA mediated currents at a submaximal agonist dose (GABA EC20=2 μM).
(§6) LTK cells were stably transfected with the α1β2γ2 subunits of the GABA receptor and CHO cells are transiently transfected with the α4β3γ subunits via the Lipofecatamine method. Cells were passaged at a confluence of about 50-80% and then seeded onto 35 mm sterile culture dishes containing 2 ml culture complete medium without antibiotics or antimycotics. Cells were cultivated at a density that enabled the recording of single cells without visible connections to other cells.
(§7) Whole-cell currents were measured with HEKA EPC-10 amplifiers using PatchMaster software. Bath solution for all experiments contained (in mM): NaCl 137, KCl 4, CaCl2 1.8, MgCl2 1, HEPES 10, D-Glucose 10, pH 7.4 with NaOH. Intracellular (pipette) solution contained (in mM): KCl 130, MgCl2 1, Mg-ATP 5, HEPES 10, EGTA 5, pH 7.2 with KOH. During experiments, cells and solutions were maintained at room temperature (19° C.-30° C.). For manual patchclamp recordings, cell culture dishes were placed on the dish holder of the microscope and continuously perfused (1 ml/min) with bath solution. After formation of a Gigaohm seal between the patch electrode and the cell (pipette resistance range: 2.5 MΩ-6.0MΩ; seal resistance range: >1 GΩ) the cell membrane across the pipette tip was ruptured to assure electrical access to the cell interior (whole-cell patch configuration).
(§8) Cells were voltage-clamped at a holding potential of −80 mV. GABAA receptors were activated by 2 μM GABA and compounds were sequentially applied at increasing concentrations for 30 s prior to a 2 s application of GABA. GABA and compounds were applied to cells via the Dynaflow perfusion system (Cellectricon, Sweden). Test compounds were dissolved in DMSO to form 10 mM stock solution and serially diluted to 0.01, 0.1, 1, and 10 μM in bath solution. […] All concentrations of test compound were tested on each cell. The relative percentage potentiation was defined as the peak amplitude in response to GABA EC20 in the presence of test compound divided by the peak amplitude in response to GABA EC20 alone, multiplied by 100.
(§9) ALLO and ganaxolone are known PAMs of both synaptic and extrasynaptic GABAAR-mediated currents. […] The α1β2γ2 or α4β3δ subunit combinations were chosen as representatives of typical synaptic and extrasynaptic GABAA receptors respectively.

α4β3δ GABAA receptors = target: T2, α4β3δ GABAA receptors (Homo sapiens, UniProt O14764+P28472+P48169); assay: Whole-cell patch clamp, potentiation of GABA EC20 currents at recombinant extrasynaptic-type receptors (CHO cells); assay type: cell-based
T2 construct: expressed in transfected cells; host or cells: CHO cells (transient transfection, Lipofectamine)
Protocol: as §5, §6, §7, §8, §9

[3] = test system: tonic current in dentate gyms granule cells (DGGCs); assay: Sustained (metabotropic) enhancement of tonic current in DGGCs after 15 min exposure and washout; assay type: cell-based, mice
Protocol: as §1, §2, §3, §4

[4] = test system: GABA receptor trafficking; assay: GABA receptor trafficking measured by GABAergic current density (FIG. 14); assay type: cell-based; details: measured by the GABAergic current density
Description: As shown in above examples, not all neurosteroids can modulate GABA receptor trafficking.

[5] = test system: GABAA receptor β3 subunit S408/9 phosphorylation; assay: Immunoblot of β3 S408/9 phosphorylation in hippocampal slices; assay type: cell-based, mice; details: 100 nM
Protocol: Hippocampi were dissected out of acute slices from 8 to 12 week old C57/B16 mice and lysed with phosphate buffer including: 20 mM Tris-HCl, 150 mM NaCl, 5 mM EDTA, 10 mM NaF, 2 mM Na3VO4, 10 mM pyrophosphate, 0.1% SDS and 1% Triton after drug treatment. The β3 subunit was isolated using immunoprecipitation with β3 antibodies, after correction for protein content and the specific activity of labeling. Results were attained by SDS/PAGE followed by autoradiography (Abramian et al., 2010). For biotinylation experiments hippocampi were dissected out of acute slices from 8 to 12 week old C57/B16 mice and incubated in artificial cerebrospinal fluid (ACSF) described above at 30° C. for 1 h for recovery before experimentation. Slices were then placed on ice and incubated for 30 min with 1 mg/mL NHS-SS-biotin (Pierce). Excess biotin was removed by a 50 mM glycine quenching buffer, followed by washing of slices three times in ice-cold ACSF. The tissue was snap frozen on dry ice for 5 min, thawed at 4° C. and lysed. The lysates were solubilized with 2% Triton at 4° C. on a rotating wheel for 1 h. The insoluble material was removed by centrifugation, and 350-500 μg of protein lysate were incubated with NeutrAvidin beads (Pierce) for 18-24 h at 4° C. Bound material was eluted with sample buffer and subjected to SDS/PAGE and then immunoblotted with the indicated antibodies. Blots were then quantified using the CCD-based ChemiDoc XRS ? system. Antibodies against the β3 subunit and the phospho-β3 antibody were generated and verified by the laboratory of S.J.M. (Vien et al., 2015).
To produce antibodies specific for phosphorylated S443, rabbits were injected with a synthetic peptide corresponding to residues […] of the murine α4 subunit in which the serine residue corresponding to S443 was chemically phosphorylated; […]. Hippocampal slices were treated with vehicle (Con), or SGE-516 for 20 min. Slices were immunoblotted with pS408/9, β3, or actin antibodies. The ratio of pS408/9/β3 immunoreactivity was then normalized to control slices (100%=the line).
Hippocampal slices were treated with 100 nM ALLO or P4 (progesterone), and S408/9 phosphorylation was then determined as detailed above, n=4 slices (FIG. 18D). Hippocampal slices were treated with 100 nM ORG (FIG. 18E). S408/9 phosphorylation was examined using immunoblotting.

[6] = test system: GT1-7 cells (co-express mPRα and GABAARs), β3 S408/9 phosphorylation; assay: Immunoblot of β3 S408/9 phosphorylation in GT1-7 cells; assay type: cell-based; details: 100 nM, 15 min; n=6
Protocol: GT1-7 cells that co-express mPRα and GABAARs were used to measure the level of phosphorylation at S408/9 position of β3 subunit. Quantitative PCR analysis indicated the enrichment of the mPRα mRNA in GT1-7 cells (FIG. 15A upper, figure taken from Thomas and Pang 2012). Expression of mPRα was confirmed using western blotting. 10 and 15 μg of SDS-soluble extracts from GT1-7 cells were immunoblotted with an mPRα specific antibody (FIG. 15A lower).
GT1-7 cells were treated with 100 nM AllO or P4 for 15 min and immunoblotted with antibodies specifically recognizing β3, actin, and […] β3 subunit (pS408/9). The ratio of pS408/9 β3 subunit immunoreactivity were then normalized to levels seen in vehicle treated to controls, n=6.

[7] = test system: tonic current in dentate gyms granule cells (DGGCs); details: Abramian et al., 2010, 2014; cited from earlier work
[8] = 100 nM acute exposure, n = 5 to 7 neurons

T1 sequence (P14867 28-456): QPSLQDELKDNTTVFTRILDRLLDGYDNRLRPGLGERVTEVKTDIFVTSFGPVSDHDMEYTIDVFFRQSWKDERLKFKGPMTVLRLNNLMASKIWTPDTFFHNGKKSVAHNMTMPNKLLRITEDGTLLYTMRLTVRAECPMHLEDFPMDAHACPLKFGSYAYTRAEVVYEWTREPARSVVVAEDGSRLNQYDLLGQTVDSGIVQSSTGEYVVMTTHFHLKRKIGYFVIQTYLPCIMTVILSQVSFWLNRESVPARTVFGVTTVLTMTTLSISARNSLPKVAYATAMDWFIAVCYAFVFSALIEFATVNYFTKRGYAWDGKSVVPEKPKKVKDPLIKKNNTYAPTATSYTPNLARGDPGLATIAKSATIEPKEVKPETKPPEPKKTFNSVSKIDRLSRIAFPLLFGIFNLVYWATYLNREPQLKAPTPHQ
T1 sequence (P47870 25-512 limits assumed): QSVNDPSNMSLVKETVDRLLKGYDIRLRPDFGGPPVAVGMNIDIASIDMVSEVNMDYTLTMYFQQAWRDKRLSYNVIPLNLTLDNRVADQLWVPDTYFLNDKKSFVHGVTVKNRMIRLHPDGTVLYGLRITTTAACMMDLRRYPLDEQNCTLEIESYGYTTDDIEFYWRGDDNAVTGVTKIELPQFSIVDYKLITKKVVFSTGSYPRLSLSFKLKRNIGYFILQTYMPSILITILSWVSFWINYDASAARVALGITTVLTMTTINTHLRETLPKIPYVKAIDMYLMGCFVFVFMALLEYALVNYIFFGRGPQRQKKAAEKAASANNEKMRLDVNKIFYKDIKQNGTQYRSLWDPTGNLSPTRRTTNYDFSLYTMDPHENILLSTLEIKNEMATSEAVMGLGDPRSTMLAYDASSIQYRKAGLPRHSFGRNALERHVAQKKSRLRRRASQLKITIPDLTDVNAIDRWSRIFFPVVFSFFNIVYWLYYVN
T1 sequence (P18507 40-475): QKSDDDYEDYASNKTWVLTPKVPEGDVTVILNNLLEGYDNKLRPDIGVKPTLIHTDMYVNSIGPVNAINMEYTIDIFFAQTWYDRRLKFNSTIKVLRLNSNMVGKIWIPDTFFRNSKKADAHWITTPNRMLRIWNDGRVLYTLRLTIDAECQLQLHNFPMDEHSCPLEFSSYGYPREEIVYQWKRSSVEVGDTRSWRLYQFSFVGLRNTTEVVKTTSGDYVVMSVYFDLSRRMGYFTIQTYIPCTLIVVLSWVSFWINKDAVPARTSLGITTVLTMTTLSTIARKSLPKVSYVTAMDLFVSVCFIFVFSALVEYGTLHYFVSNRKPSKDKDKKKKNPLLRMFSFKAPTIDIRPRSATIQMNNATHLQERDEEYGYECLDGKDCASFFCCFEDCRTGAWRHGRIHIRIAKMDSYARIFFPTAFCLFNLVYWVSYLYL
T2 sequence (P48169 36-554): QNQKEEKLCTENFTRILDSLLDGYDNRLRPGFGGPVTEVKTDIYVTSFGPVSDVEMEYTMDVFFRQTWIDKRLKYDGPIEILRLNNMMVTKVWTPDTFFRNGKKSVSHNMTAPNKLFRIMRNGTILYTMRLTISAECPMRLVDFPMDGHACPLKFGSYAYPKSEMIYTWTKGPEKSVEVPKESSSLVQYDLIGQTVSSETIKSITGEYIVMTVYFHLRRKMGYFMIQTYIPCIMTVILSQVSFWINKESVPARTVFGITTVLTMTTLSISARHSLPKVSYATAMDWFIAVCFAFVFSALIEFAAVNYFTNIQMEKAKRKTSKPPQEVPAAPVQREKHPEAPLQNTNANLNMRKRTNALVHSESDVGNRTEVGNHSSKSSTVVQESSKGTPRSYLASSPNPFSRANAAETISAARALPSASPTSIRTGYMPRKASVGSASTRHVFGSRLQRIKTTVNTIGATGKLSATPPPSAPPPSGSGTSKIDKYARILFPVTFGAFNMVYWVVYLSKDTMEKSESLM
T2 sequence (P28472 26-473): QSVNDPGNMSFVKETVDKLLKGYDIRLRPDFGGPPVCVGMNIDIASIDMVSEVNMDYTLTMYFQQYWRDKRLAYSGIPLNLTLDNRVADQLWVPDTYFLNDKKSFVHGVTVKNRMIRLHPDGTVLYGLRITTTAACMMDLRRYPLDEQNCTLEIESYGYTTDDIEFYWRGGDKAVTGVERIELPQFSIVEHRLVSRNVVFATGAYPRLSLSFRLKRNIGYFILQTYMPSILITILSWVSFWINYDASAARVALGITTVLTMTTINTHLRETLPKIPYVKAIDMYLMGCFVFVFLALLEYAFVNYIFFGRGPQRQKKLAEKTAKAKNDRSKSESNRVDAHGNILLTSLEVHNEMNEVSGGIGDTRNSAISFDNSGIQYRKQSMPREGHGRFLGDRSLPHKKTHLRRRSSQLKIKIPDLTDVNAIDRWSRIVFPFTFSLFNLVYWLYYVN
T2 sequence (O14764 25-452): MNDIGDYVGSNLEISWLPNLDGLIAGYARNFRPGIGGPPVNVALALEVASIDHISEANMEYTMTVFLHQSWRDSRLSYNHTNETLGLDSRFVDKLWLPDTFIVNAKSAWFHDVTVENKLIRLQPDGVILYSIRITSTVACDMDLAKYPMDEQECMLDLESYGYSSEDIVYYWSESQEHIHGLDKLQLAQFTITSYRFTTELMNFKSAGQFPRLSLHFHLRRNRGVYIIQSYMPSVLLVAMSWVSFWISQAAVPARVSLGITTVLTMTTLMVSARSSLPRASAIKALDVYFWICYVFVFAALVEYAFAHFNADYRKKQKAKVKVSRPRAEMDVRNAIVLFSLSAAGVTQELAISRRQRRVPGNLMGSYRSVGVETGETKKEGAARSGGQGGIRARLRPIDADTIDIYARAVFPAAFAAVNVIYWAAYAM

SMILES: CC(=O)[C@H]1CC[C@H]2[C@@H]3CC[C@H]4C[C@](C)(O)CC[C@]4(C)[C@H]3CC[C@]12C [Ganaxolone]
- mean sIPSC amplitude before versus during exposure ([1]; 100 nM): no significant difference
- mean sIPSC decay time in the presence of compound ([1]; 100 nM): significantly increased
- sIPSC Amplitude [1, 8]: 55.1 ± 0.7 pA
- sIPSC Decay [1, 8]: 23.6 ± 2.9^c ms
- sIPSC Frequency [1, 8]: 5.6 ± 1.7 Hz
- tonic current during acute exposure [2]: 78.8±23.2 pA
- EC50 (α1β2γ2 GABAA receptors; EC50, potentiation of GABA current): 256 nM
- EC50 (α1β2γ2 GABAA receptors; pEC50 ± S.E.M.): 158 nM
- Emax ± S.E.M., α1β2γ2 (α1β2γ2 GABAA receptors; relative percentage potentiation of GABA EC20 peak current): 400 ± 27%
- EC50 (α4β3δ GABAA receptors): 94 nM
- Emax (α4β3δ GABAA receptors; CHO, relative percentage potentiation of GABA EC20 peak current, n = 3, read-out: Emax ± S.E.M., α4β3δ): 225%
- Emax ± S.E.M., α4β3δ (α4β3δ GABAA receptors; relative percentage potentiation of GABA EC20 peak current, n = 3): 225 ± 8%
- tonic current after exposure and washout ([3]; 1 μM, 15 min incubation, 30-60 min wash, vehicle 43.9±5.7 pA): 57.4±6.3 pA
- change of tonic current versus vehicle ([3]; 1 μM, 15 min incubation, wash): did not significantly alter; also recorded: No significant change
- modulation of GABA receptor trafficking [4]: did not modulate GABA receptor trafficking

SMILES: CC(=O)[C@H]1CC[C@H]2[C@@H]3CCC4=CC(=O)CC[C@]4(C)[C@H]3CC[C@]12C [P4, Progesterone]
- S408/9 phosphorylation in hippocampal slices [5]: regulated
- S408/9 phosphorylation (pS408/9/β3) in GT1-7 cells [6]: increase
- amplitude and density of GABAergic tonic current at varying doses ([3]; protocol as in FIG. 3, n=6-8 cells): dosage-dependent effect; also recorded: dosage dependent effect

SMILES: C[C@@]1(O)CC[C@H]2[C@H](CC[C@@H]3[C@@H]2CC[C@]2(C)[C@@H](C(=O)Cn4cc(C#N)cn4)CC[C@@H]32)C1 [SAGE-217]
- modulation of GABA receptor trafficking [4]: modulated GABA receptor trafficking

SMILES: C[C@]12CC[C@@H](O)C[C@H]1CC[C@@H]1[C@@H]2CC[C@]2(C)[C@@H](C(=O)CO)CC[C@@H]12 [THDOC, Tetrahydrodeoxy- corticosterone]
- sustained effects on GABAergic tonic current [7]: long lasting increase

SMILES: CN1C(=O)CN=C(c2ccccc2)c2cc(Cl)ccc21 [diazepam]
- Emax (α1β2γ2 GABAA receptors; LTK, relative percentage potentiation of GABA EC20 peak current, read-out: Emax ± S.E.M., α1β2γ2): 184%
- effect on GABA evoked currents in α4β3δ receptors (α4β3δ GABAA receptors; data not shown): did not alter
